Patent publication US6403791B1, “Heterocyclic compounds and their therapeutic use” (Darwin Discovery, Ltd., priority 2000, dated 2002)

Test: Oral pharmacokinetics (Cmax) in guinea pigs
Settings: guinea pig, in vivo, dosed orally at 3 mg/kg to guinea pigs

- Cmax: 4370 ng/mL
Compound: CCc1nc2c(OC(F)F)ccc(C(=O)Nc3c(C)noc3C)c2o1 [Example 1, 4-Difluoromethoxy-2-ethylbenzooxazole-7-carboxylic acid (3,5-dimethylisoxazole-4-yl)-amide]
